Data on nine compounds can be found in ChEMBL document CHEMBL5291721, “A preclinical secondary pharmacology resource illuminates target-adverse drug reaction associations of marketed drugs” (Nat Commun, 2023).

Molecules are shown by their SMILES. A value given as a limit tells only on which side of the number the result lay.

For assay [1], the target named is T1, Muscarinic acetylcholine receptor M5 (Homo sapiens, UniProt P08912).
T1 sequence (P08912 whole entry): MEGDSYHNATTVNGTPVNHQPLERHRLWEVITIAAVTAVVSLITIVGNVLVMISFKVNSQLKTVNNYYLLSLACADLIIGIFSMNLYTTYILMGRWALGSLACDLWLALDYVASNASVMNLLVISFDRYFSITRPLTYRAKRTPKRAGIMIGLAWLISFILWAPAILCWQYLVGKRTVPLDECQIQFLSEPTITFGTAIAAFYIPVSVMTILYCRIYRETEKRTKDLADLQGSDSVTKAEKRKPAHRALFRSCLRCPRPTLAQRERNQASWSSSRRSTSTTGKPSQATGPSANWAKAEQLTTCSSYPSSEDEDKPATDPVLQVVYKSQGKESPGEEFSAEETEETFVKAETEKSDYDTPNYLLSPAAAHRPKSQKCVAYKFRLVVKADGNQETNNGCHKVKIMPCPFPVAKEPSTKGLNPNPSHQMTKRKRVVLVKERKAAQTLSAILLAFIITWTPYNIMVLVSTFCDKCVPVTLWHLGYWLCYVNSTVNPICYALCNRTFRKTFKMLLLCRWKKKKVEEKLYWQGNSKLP

The next assay deals with D(1B) dopamine receptor (Homo sapiens, UniProt P21918).
For assay [2], the target named is Gamma-aminobutyric acid type B receptor subunit 1 (Homo sapiens, UniProt Q9UBS5).
Assay [3] addresses 5-hydroxytryptamine receptor 5A (Homo sapiens, UniProt P47898).
The target in assay [4] is 5-hydroxytryptamine receptor 6 (Homo sapiens, UniProt P50406).
Assay [5] addresses 5-hydroxytryptamine receptor 7 (Homo sapiens, UniProt P34969).
Assay [6] addresses Rod cGMP-specific 3',5'-cyclic phosphodiesterase subunit alpha (Homo sapiens, UniProt P16499). It counts as functional.
A further assay concerns the target T2, Substance-K receptor (Homo sapiens, UniProt P21452).
T2 sequence (P21452 whole entry): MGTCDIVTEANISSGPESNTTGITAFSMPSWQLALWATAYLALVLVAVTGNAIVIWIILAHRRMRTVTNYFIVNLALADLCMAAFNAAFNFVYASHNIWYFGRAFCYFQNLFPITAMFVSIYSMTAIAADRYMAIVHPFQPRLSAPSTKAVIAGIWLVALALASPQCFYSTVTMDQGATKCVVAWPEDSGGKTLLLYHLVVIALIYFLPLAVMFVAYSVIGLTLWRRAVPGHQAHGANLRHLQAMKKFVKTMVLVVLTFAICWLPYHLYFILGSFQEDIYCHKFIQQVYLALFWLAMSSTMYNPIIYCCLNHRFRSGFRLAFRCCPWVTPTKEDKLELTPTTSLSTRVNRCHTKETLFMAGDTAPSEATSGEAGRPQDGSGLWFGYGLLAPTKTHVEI

Assay [7] deals with T3, Type-2 angiotensin II receptor (Homo sapiens, UniProt P50052).
T3 sequence (P50052 whole entry): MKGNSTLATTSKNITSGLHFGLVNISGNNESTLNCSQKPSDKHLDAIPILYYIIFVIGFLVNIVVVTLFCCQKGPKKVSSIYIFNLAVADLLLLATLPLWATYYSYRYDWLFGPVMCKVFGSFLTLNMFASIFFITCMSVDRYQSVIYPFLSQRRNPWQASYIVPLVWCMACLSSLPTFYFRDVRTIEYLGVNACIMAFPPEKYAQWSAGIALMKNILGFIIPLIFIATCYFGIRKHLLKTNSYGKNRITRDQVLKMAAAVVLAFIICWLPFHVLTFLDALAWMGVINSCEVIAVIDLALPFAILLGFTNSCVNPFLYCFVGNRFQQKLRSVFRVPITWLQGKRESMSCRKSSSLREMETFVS
It is filed as functional.

The target of assay [8] is Sodium channel protein type 5 subunit alpha (Homo sapiens, UniProt Q14524). It counts as functional, cell-based.
The target of assay [9] is T4, Muscarinic acetylcholine receptor M2 (Homo sapiens, UniProt P08172).
T4 sequence (P08172 whole entry): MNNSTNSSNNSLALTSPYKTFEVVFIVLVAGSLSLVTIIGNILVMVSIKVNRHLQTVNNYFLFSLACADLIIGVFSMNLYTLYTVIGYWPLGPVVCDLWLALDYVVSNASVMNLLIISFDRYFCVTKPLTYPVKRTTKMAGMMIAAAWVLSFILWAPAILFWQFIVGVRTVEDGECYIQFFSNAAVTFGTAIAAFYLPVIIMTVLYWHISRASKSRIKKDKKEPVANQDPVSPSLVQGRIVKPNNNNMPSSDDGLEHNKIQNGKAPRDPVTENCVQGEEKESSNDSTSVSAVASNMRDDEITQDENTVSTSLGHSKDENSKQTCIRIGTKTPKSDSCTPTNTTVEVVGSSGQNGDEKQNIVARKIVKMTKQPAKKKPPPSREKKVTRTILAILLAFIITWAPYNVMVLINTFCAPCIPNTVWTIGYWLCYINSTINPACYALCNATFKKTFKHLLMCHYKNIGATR

Assay [10] concerns the target Voltage-dependent L-type calcium channel subunit alpha-1C (Homo sapiens, UniProt Q13936). It is filed as functional, cell-based.
The target in assay [11] is Beta-1 adrenergic receptor (Homo sapiens, UniProt P08588). It is filed as functional, cell-based.
For assay [12], the target named is T5, Histamine H1 receptor (Homo sapiens, UniProt P35367). It is filed as functional, cell-based.
Assay [13] addresses T5, Histamine H1 receptor. It counts as functional, cell-based. This is another data set of the same source.
Also: assay procedure not described here.

Sequence of Sodium channel protein type 5 subunit alpha (Q14524 whole entry): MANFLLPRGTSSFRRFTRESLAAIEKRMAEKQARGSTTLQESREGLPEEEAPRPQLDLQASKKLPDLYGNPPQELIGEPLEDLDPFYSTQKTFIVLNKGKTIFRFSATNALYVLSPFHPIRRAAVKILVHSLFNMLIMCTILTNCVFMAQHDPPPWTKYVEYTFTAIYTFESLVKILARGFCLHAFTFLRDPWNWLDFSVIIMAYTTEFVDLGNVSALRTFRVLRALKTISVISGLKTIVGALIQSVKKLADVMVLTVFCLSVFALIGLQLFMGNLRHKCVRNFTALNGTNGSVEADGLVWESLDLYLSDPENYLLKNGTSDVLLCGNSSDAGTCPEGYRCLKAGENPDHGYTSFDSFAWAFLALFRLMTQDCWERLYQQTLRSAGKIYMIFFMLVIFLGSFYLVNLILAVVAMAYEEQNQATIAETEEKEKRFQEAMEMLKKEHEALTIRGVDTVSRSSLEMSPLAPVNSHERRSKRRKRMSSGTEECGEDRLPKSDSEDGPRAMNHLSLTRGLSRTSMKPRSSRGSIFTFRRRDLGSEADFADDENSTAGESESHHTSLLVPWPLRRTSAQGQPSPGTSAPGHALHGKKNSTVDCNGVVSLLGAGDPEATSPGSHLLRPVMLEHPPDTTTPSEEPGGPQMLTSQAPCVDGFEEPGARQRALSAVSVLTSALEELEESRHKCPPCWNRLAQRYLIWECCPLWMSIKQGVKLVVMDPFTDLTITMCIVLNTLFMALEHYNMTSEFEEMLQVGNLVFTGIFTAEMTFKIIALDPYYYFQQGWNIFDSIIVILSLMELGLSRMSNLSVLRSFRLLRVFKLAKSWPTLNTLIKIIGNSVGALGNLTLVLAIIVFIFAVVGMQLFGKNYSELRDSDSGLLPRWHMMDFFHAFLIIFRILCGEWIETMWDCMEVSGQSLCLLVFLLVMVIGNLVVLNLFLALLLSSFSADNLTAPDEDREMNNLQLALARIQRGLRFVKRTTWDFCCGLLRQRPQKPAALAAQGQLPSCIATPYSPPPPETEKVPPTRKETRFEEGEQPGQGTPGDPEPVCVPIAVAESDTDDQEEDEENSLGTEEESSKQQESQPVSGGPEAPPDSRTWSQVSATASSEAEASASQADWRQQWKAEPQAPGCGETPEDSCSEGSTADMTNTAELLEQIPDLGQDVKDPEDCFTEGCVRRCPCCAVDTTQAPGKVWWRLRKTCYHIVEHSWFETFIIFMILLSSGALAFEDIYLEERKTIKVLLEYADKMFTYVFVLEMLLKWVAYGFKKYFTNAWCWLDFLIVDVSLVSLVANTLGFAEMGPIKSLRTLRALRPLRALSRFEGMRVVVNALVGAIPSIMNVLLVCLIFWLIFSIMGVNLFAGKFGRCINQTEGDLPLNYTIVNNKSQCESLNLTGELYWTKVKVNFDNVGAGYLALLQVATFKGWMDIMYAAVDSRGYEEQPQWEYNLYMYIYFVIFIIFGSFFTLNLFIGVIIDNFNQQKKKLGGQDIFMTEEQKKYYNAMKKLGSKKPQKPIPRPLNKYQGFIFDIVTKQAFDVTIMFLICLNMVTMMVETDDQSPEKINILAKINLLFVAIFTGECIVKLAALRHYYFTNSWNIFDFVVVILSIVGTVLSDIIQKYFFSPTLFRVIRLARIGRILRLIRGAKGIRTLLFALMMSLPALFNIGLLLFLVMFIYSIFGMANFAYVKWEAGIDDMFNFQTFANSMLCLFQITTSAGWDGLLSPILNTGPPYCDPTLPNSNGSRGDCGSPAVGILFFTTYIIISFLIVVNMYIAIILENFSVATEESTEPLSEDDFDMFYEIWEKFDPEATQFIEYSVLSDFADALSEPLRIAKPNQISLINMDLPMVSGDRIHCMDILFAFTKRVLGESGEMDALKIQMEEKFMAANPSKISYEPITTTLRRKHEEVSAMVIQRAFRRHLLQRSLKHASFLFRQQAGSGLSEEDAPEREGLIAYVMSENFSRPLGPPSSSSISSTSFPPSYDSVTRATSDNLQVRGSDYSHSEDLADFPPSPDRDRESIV
Sequence of Rod cGMP-specific 3',5'-cyclic phosphodiesterase subunit alpha (P16499 whole entry): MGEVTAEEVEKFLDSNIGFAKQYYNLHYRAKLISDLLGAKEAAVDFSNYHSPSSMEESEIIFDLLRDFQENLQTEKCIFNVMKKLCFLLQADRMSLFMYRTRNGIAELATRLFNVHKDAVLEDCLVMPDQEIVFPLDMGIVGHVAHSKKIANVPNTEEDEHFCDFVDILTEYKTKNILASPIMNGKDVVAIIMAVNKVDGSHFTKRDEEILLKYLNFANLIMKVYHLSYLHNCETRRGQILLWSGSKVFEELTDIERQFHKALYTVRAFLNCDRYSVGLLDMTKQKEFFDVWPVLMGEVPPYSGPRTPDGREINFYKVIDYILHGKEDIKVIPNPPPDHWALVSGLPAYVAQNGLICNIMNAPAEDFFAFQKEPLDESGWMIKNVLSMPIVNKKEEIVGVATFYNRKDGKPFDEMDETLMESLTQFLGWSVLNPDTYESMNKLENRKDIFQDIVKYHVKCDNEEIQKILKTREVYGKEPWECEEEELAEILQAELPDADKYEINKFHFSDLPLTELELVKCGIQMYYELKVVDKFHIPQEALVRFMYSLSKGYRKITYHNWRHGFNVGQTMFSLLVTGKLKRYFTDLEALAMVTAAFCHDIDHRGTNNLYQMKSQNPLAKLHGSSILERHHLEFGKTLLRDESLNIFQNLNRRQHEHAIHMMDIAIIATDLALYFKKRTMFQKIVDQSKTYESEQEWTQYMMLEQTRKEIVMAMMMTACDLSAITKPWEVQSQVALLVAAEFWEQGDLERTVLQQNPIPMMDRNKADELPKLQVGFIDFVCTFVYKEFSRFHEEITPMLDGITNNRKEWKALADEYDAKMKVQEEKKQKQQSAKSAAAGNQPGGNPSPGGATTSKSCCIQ
Sequence of Gamma-aminobutyric acid type B receptor subunit 1 (Q9UBS5 whole entry): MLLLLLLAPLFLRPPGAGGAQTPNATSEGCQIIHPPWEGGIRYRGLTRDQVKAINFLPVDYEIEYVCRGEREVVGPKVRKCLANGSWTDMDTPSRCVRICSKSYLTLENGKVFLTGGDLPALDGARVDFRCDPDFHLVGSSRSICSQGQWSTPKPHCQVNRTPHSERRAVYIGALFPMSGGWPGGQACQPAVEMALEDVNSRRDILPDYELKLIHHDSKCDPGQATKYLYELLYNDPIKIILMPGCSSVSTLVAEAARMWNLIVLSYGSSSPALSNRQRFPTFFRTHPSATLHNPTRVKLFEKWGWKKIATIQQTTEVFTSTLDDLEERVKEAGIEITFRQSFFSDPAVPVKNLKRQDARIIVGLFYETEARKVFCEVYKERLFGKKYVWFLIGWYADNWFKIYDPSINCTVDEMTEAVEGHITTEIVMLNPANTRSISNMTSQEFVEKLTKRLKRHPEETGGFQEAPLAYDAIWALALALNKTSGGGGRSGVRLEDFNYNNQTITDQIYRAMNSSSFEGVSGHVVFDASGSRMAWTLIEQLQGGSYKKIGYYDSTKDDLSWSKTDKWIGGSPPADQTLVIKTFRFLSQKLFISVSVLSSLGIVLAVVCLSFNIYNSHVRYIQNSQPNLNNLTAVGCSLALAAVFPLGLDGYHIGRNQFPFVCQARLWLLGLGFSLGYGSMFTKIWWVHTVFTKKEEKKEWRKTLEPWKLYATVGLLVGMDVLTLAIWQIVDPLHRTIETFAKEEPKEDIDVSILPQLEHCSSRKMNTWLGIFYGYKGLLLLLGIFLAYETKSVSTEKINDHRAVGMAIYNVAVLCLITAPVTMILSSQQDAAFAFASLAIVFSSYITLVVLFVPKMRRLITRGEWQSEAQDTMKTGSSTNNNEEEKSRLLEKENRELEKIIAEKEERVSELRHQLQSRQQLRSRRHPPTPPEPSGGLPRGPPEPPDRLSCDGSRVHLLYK
T5 sequence (P35367 whole entry): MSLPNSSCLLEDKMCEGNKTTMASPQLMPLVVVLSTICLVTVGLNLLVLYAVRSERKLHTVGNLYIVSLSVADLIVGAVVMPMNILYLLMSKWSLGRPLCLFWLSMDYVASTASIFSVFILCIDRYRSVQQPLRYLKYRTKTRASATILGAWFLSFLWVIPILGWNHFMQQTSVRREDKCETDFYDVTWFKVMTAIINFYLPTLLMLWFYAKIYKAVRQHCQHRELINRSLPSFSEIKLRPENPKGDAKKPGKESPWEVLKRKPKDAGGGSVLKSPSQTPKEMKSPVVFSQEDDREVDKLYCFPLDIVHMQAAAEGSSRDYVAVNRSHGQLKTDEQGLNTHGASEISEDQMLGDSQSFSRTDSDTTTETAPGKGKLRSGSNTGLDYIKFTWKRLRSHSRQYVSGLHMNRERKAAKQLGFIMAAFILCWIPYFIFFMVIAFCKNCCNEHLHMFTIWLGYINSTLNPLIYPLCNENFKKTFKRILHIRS
Sequence of D(1B) dopamine receptor (P21918 whole entry): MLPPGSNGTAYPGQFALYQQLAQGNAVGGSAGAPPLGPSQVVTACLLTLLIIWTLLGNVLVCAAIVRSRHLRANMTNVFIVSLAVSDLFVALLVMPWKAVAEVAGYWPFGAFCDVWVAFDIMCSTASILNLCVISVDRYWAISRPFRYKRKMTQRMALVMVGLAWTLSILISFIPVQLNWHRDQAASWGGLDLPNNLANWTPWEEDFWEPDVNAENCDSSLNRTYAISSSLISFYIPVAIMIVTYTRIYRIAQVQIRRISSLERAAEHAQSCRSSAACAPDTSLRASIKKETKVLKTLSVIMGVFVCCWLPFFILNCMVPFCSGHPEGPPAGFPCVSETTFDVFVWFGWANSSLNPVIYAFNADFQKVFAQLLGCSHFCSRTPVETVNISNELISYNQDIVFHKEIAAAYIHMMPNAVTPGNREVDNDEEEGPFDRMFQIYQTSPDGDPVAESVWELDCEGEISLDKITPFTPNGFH

As to `O=C(Nc1nc(-c2cc(Cl)cs2)c(N2CCN(C3CCCCC3)CC2)s1)c1cnc(N2CCC(C(=O)O)CC2)c(Cl)c1` [AVATROMBOPAG], the AC50 (in [1]; at D(1B) dopamine receptor; in assay [2]; in [3]; in assay [4]; in assay [5]) was above 10 µM throughout. Also, the concentration at half-maximal activity (AC50) (in assay [6]; on Substance-K receptor) was above 10 µM each time.

For the compound `NS(=O)(=O)c1cc(C2(O)NC(=O)c3ccccc32)ccc1Cl` (stereo not given) [CHLORTHALIDONE], the AC50 in assay [7] was above 100 µM.

The compound `COc1ccc2c(c1)[C@]13CCCC[C@@H]1[C@H](C2)N(C)CC3` [DEXTROMETHORPHAN] gave an AC50 in assay [8] above 30 µM.

In assay [9], `OC(CCCN1CCCCC1)(c1ccccc1)c1ccccc1` [DIPHENIDOL] came in with an AC50 of 0.38 µM.

For `O=C(CCCN1CC=C(n2c(=O)[nH]c3ccccc32)CC1)c1ccc(F)cc1` [DROPERIDOL], the results for the half-maximal activity concentration (AC50) in assay [10] and in assay [8] were above 50 µM and 49 µM, respectively.

With `CCn1cc(C(=O)O)c(=O)c2cc(F)c(N3CCNCC3)nc21` [ENOXACIN], the AC50 (in assay [1]; at D(1B) dopamine receptor; in [2]; in assay [3]; in [4]; in assay [5]) was above 10 µM in each case. The AC50 (in [6]; at Substance-K receptor) was above 10 µM throughout.

For `CNC(=O)Oc1ccc2c(c1)[C@]1(C)CCN(C)[C@@H]1N2C` [PHYSOSTIGMINE], the AC50 in [11] is above 30 µM.

For the compound `NS(=O)(=O)c1cc(C(=O)O)cc(N2CCCC2)c1Oc1ccccc1` [PIRETANIDE], in assay [7], the AC50 was above 100 µM.

As to `O=C(CCCN1CCC2(CC1)C(=O)NCN2c1ccccc1)c1ccc(F)cc1` [SPIPERONE], the results for the AC50 at Histamine H1 receptor [12] and at Histamine H1 receptor [13] were 7.1 µM and 1.2 µM, respectively.

By AC50 is commonly meant the concentration at which the activity in the assay is half-maximal.
